Measured values from patent publication US12653772B2, “Use of a rosebush extract as depigmenting active agent” (L'OREAL, priority 2020, dated 2026).

Tested on: reconstructed pigmented Episkin model
Assay: Depigmenting effect by topical application on the reconstructed pigmented Episkin model; melanin quantified by image analysis of Fontana-Masson stained sections
Type: cell-based
Details: DMSO control 569.02
Protocol: The results of the evaluation are compared to those of the solvent (DMSO) control and of a reference whitening active agent (Lucinol).
The histological quality of the epidermis after treatment was evaluated on the HES-stained histological section in order to determine the effect of the treatment on the epidermis.
The melanocyte physiology was also evaluated in order to detect melanocyte cytotoxicity.
The melanin present in the PRE is stained on the histological slide (Fontana-Masson staining) and then quantified by image analysis.
Each epidermis slide is digitized using Nanozoomer®.
For each epidermis, about 10˜15 images are extracted (white light, magnification ×20).
The area occupied by melanin is quantified using the Histolab® software.
Two parameters, namely graphic comparison (box-plot) and p value significance (Mann-Whitney U test), were applied to the interpretation of the statistical results.
Up to 6 repetitions were calculated for each treatment group.
The statistical significance between the test groups and the corresponding solvent controls was determined using the non-parametric Mann-Whitney U test (n=6).
The statistical significance is defined if the p value is less than 0.05. […]
The area occupied by melanin is quantified using the Histolab® software and is represented by the mean pixel number per image. […]

Structure (SMILES): CCCCc1ccc(O)cc1O [Lucinol]
- Mean pixel number/image (area occupied by melanin) (300 μM): 394.69
- Mean pixel number/image (area occupied by melanin) (500 μM): 467.76
